Experimental data taken from patent publication US7026466B1, “Serotonin-gated anion channel” (Massachusetts Institute of Technology, priority 1999, dated 2006).
Where two headings read alike, the source gives them in different places.

Columns and labels:
MOD-1 channel = MOD-1 channel (Caenorhabditis elegans, UniProt Q9GQ00); assay: Voltage clamp of MOD-1 heterologously expressed in Xenopus oocytes or HEK cells; assay type: cell-based, C. elegans
5-HT3a channel [1] = biological target: T1, 5-HT3a channel (Homo sapiens, UniProt P46098)
T1 sequence (P46098 24-478): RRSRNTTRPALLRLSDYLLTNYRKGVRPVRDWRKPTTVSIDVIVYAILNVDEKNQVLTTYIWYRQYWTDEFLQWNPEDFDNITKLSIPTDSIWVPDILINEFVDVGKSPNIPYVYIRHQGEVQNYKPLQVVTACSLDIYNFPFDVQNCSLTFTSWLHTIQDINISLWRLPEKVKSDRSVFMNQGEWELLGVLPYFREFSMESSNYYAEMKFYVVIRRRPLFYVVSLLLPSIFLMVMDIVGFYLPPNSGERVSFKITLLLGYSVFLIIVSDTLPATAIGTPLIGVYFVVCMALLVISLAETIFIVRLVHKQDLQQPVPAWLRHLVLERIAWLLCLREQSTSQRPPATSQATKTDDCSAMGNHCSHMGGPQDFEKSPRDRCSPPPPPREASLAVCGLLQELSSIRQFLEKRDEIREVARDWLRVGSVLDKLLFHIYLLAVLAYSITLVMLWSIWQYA

C. elegans = assay: Enhanced slowing response (locomotion) of food-deprived C. elegans on a bacterial lawn; assay type: in vivo
[2] = tested on: MOD-1-like serotonin-activated current; assay: Voltage clamp of Xenopus oocytes injected with rat brain RNA (MOD-1-like response); assay type: cell-based; conditions: −70 mV, BAPTA-AM 200 μM
Experimental: A method to identify a mammalian serotonin-gated chloride channel was carried out essentially as described above. Oocytes were injected with rat cortex RNA. […] The oocytes were then screened under a voltage clamp, in a buffer containing 96 mM NaCl, 2 mM KCl, 0.3 mM CaCl2, 1 mM MgCl2, and 5 mM HEPES (pH 7.5), and with 100 mM Tris added.
In additional studies, oocytes were injected with poly(A)+ RNA from rat cortex, striatum, or thalamus, as described above. The oocytes were bathed in 200 μM BAPTA-AM for 2 hours, and were then screened under a voltage clamp, in a bath solution containing 2 mM Co^2+ to block 5-HT3a responses. […] FIG. 12 is a representative time trace of a MOD-1-like response from an oocytes injected with rat cortex RNA. These MOD-1-like currents were not detected in oocytes injected with rat RNA from spinal cord, heart, lung, or testes.

5-HT3a channel [3] = biological target: T1, 5-HT3a channel; conditions: read-out: IC 50, competitive antagonist of the 5-HT3a channel; cited from earlier work
[4] = pretreatment of wild-type C. elegans, food-deprived

Chain of MOD-1 channel (Q9GQ00 whole entry, looked up): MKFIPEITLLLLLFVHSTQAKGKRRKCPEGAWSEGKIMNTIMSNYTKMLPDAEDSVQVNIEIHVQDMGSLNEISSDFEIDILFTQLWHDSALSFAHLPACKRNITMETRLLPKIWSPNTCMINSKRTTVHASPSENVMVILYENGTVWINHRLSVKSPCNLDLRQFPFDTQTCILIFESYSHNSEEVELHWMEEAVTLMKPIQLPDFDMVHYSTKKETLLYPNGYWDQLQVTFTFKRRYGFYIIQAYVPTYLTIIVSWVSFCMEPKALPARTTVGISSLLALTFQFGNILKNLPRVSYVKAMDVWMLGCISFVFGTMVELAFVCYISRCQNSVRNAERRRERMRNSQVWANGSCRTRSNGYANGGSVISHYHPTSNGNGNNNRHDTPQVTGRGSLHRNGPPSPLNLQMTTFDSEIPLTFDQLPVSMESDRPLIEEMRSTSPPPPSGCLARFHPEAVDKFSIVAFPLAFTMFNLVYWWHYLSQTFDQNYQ

Compound: CC(=O)OCOC(=O)CN(CC(=O)OCOC(C)=O)c1ccccc1OCCOc1ccccc1N(CC(=O)OCOC(C)=O)CC(=O)OCOC(C)=O [BAPTA-AM]
- effect on the function of MOD-1 (MOD-1 channel; approximately 200 μM in the bath): does not affect the function of MOD-1

Compound: NCCCC(=O)O [GABA]
- response from the MOD-1 channel (MOD-1 channel; application of 1 mM agonist): little or no response

Compound: NC(CO)(CO)CO [Tris]
- block of the 5-HT3 cation channel (5-HT3a channel [1]; 100 mM added to buffer): completely blocks

Compound: NCC(=O)O [glycine]
- response from the MOD-1 channel (MOD-1 channel): little or no response

Compound: CSc1ccc2c(c1)C(N1CCN(C)CC1)Cc1ccccc1S2 (centres unmarked) [methiothepin]
- Ki (MOD-1 channel; MOD-1 in oocytes, read-out: approximate Ki, inhibition of the MOD-1 channel): ~32 µM
- effect on enhanced slowing response (C. elegans; pre-treatment of mod-1 mutants): did not further affect the defective enhanced slowing response
- effect on enhanced slowing response (C. elegans; [4]): prevents food-deprived animals from exhibiting the wild-type enhanced slowing response

Compound: CN1CCN2c3ccccc3Cc3ccccc3C2C1 (centres unmarked) [mianserin]
- effect on enhanced slowing response (C. elegans; pre-treatment of mod-1 mutants): did not further affect the defective enhanced slowing response
- effect on enhanced slowing response (C. elegans; [4]): prevents food-deprived animals from exhibiting the wild-type enhanced slowing response

Compound: NCCc1c[nH]c2ccc(O)cc12 [serotonin]
- current elicited (MOD-1 channel; 100 nM, holding potential −70 mV): large inward currents
- concentration of agonist at which serotonin-gated currents are detectable (MOD-1 channel; MOD-1 receptors, HEK cell and Xenopus oocyte expression systems): 10 to 50 nM
- oocytes with inward currents ([2]; rat cortex RNA, 1 μM serotonin for 1 minute, 100 mM Tris): about 10%
- oocytes with inward currents ([2]; rat cortex, striatum or thalamus poly(A)+ RNA, 1 μM serotonin, 2 mM Co2+): approximately 33%
- response of 5-HT3a channels (5-HT3a channel [1]; 1 μM serotonin): no response is detectable
- response of 5-HT3a channels (5-HT3a channel [1]; 10 μM serotonin): robust current
- concentration of agonist at which serotonin-gated currents are detectable (5-HT3a channel [1]; 5-HT3 receptors, HEK cell and Xenopus oocyte expression systems): > 10 µM

Compound: σ-conotoxin GVIIIA
- IC50 (5-HT3a channel [3]): ~0.05 µM
